pIC50: −log10 of the molar value.
Molecular target: T1, recombinant human 11 β-HSD1 (Homo sapiens, UniProt P28845)
T1 construct: made in house; host or cells: E. coli
Experiment: 11 β-HSD1 SPA Assay (Scintillation Proximity Assay)
Format: biochemical
Summary of the method: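 Scintillation proximity read-out of cortisol formed from 40 nM [3H]cortisone by purified recombinant human enzyme (30-100 nM, E. coli) with 1 mM NADPH, pH7.4, 2 hours at room temperature; beads with cortisol antibody and glycyrrhetinic acid stop the reaction, read next day. IC50 derived from inhibition normalised to background and maximal wells.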

T1 sequence (P28845 whole entry): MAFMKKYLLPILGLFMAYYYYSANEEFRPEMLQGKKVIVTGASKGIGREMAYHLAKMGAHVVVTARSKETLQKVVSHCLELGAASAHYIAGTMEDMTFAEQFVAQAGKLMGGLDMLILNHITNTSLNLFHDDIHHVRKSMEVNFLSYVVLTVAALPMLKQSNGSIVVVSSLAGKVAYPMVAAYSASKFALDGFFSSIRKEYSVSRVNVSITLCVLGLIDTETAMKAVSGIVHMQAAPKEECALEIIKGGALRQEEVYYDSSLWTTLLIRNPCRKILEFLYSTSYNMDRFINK

Row | Structure (SMILES) | pIC50
1 | CC(C)(Oc1ccccc1Cl)C(=O)N[C@H]1C[C@H]2CC[C@@H](C1)N2c1ccc(C(=O)NCC(F)(F)F)cn1 [Example 29, 6-[3-endo-({2-[(2-chlorophenyl)oxy]-2-methylpropanoyl}amino)-8-azabicyclo[3.2.1]oct-8-yl]-N-(2,2,2-trifluoroethyl)pyridine-3-carboxamide] | > 6.70
2 | CC(C)(Oc1ncc(Cl)cc1Cl)C(=O)N[C@H]1C[C@H]2CC[C@@H](C1)N2c1ccc(C(N)=O)cn1 [Example 124, 6-[3-endo-({2-[(3,5-dichloropyridin-2-yl)oxy]-2-methylpropanoyl}amino)-8-azabicyclo[3.2.1]oct-8-yl]pyridine-3-carboxamide] | > 6.70
3 | CC(C)(Oc1cc(Cl)c(F)cc1Cl)C(=O)N[C@H]1C[C@H]2CC[C@@H](C1)N2c1ccc(S(C)(=O)=O)cc1 [Example 174, 2-[(2,5-dichloro-4-fluorophenyl)oxy]-2-methyl-N-{8-[4-(methylsulfonyl)phenyl]-8-azabicyclo[3.2.1]oct-3-endo-yl}propanamide] | > 5.70
4 | CC(C)(Oc1cc(Cl)c(Cl)cc1Cl)C(=O)N[C@H]1C[C@H]2CC[C@@H](C1)N2c1ccc(S(C)(=O)=O)cc1 [Example 199, 2-methyl-N-{8-[4-(methylsulfonyl)phenyl]-8-azabicyclo[3.2.1]oct-3-endo-yl}-2-[(2,4,5-trichlorophenyl)oxy]propanamide] | > 6.70
5 | CC(C)(Oc1cc(Cl)ccc1Cl)C(=O)N[C@H]1C[C@H]2CC[C@@H](C1)N2c1ccc(C(=O)NC2CC2)cn1 [Example 71, N-cyclopropyl-6-[3-endo-({2-[(2,5-dichlorophenyl)oxy]-2-methylpropanoyl}amino)-8-azabicyclo[3.2.1]oct-8-yl]pyridine-3-carboxamide] | > 6.70
6 | CC(C)(Oc1ccccc1C(F)(F)F)C(=O)N[C@H]1C[C@H]2CC[C@@H](C1)N2c1ccc(S(C)(=O)=O)cn1 [Example 255, 2-methyl-N-{8-[5-(methylsulfonyl)pyridin-2-yl]-8-azabicyclo[3.2.1]oct-3-endo-yl}-2-{[2-(trifluoromethyl)phenyl]oxy}propanamide] | > 6.70
7 | CC(C)(Oc1cc(F)ccc1Cl)C(=O)N[C@H]1C[C@H]2CC[C@@H](C1)N2c1ccc(C(=O)NCC(F)(F)F)cn1 [Example 73, 6-[3-endo-({2-[(2-chloro-5-fluorophenyl)oxy]-2-methylpropanoyl}amino)-8-azabicyclo[3.2.1]oct-8-yl]-N-(2,2,2-trifluoroethyl)pyridine-3-carboxamide] | > 6.70
8 | CC(C)(C(=O)N[C@H]1C[C@H]2CC[C@@H](C1)N2c1ccc(C(=O)NCC(F)(F)F)cn1)c1ccc(Cl)cc1 [Example 26, 6-(3-endo-{[2-(4-chlorophenyl)-2-methylpropanoyl]amino}-8-azabicyclo[3.2.1]oct-8-yl)-N-(2,2,2-trifluoroethyl)pyridine-3-carboxamide] | > 6.70
9 | CC(C)(Oc1cc(C(F)(F)F)ccc1F)C(=O)N[C@H]1C[C@H]2CC[C@@H](C1)N2c1ccc(C(=O)NCC(F)(F)F)cn1 [Example 190, 6-{3-endo-[(2-{[2-fluoro-5-(trifluoromethyl)phenyl]oxy}-2-methylpropanoyl)amino]-8-azabicyclo[3.2.1]oct-8-yl}-N-(2,2,2-trifiuoroethyl)pyridine-3-carboxamide] | > 6.70
10 | CC(C)(Oc1ccc(Cl)cc1Cl)C(=O)N[C@H]1C[C@H]2CC[C@@H](C1)N2c1cccc(S(C)(=O)=O)c1 [Example 156, 2-[(2,4-dichlorophenyl)oxy]-2-methyl-N-{8-[3-(methylsulfonyl)phenyl]-8-azabicyclo[3.2.1]oct-3-endo-yl}propanamide] | > 5.70
11 | C[C@H](NC(=O)c1ccc(N2C3CCC2CC(NC(=O)C(C)(C)Oc2cc(F)c(Cl)cc2Cl)C3)nc1)C(F)(F)F (stereo partly drawn) [Example 425, 6-(3-endo-{[2-(2,4-dichloro-5-fluorophenoxy)-2-methylpropanoyl]amino}-8-azabicyclo[3.2.1]oct-8-yl)-N-[(2S)-1,1,1-trifluoropropan-2-yl]pyridine-3-carboxamide] | > 6.70
12 | C[C@H](NC(=O)c1ccc(N2C3CCC2CC(NC(=O)C(C)(C)Oc2ccc(Cl)cc2C(F)F)C3)nc1)C(F)(F)F (stereo partly drawn) [Example 424, 6-[3-endo-({2-[4-chloro-2-(difluoromethyl)phenoxy]-2-methylpropanoyl}amino)-8-azabicyclo[3.2.1]oct-8-yl]-N-[(2S)-1,1,1-trifluoropropan-2-yl]pyridine-3-carboxamide] | > 6.70
13 | CC(C)(Oc1ccc(Cl)cc1Cl)C(=O)N[C@H]1C[C@H]2CC[C@@H](C1)N2c1ccc(NC(=O)NCC(F)(F)F)cc1F [Example 137, 2-[(2,4-dichlorophenyl)oxy]-N-{8-[2-fluoro-4-({[(2,2,2-trifluoroethyl)amino]carbonyl}amino)phenyl]-8-azabicyclo[3.2.1]oct-3-endo-yl}-2-methylpropanamide] | > 6.70
14 | CC(C)(Oc1ccc(F)c(F)c1)C(=O)N[C@H]1C[C@H]2CC[C@@H](C1)N2c1ccc(S(C)(=O)=O)cc1 [Example 209, 2-[(3,4-difluorophenyl)oxy]-2-methyl-N-{8-[4-(methylsulfonyl)phenyl]-8-azabicyclo[3.2.1]oct-3-endo-yl}propanamide] | > 5.70
15 | CC(C)(Oc1ccc(Cl)cc1Cl)C(=O)N[C@H]1C[C@H]2CC[C@@H](C1)N2c1ccc(NC(=O)CC(F)(F)F)cn1 [Example 147, N-{6-[3-endo-({2-[(2,4-dichlorophenyl)oxy]-2-methylpropanoyl}amino)-8-azabicyclo[3.2.1]oct-8-yl]pyridin-3-yl}-3,3,3-trifluoropropanamide] | > 6.70
16 | CC(C)(Oc1ccc(Cl)cc1OC(F)(F)F)C(=O)NC1CC2CCC(C1)N2c1ccc(C(=O)NC2CC2(F)F)cn1 (stereo not drawn) [Example 394, 6-[3-endo-({2-[4-chloro-2-(trifluoromethoxy)phenoxy]-2-methylpropanoyl}amino)-8-azabicyclo[3.2.1]oct-8-yl]-N-(2,2-difluorocyclopropyl)pyridine-3-carboxamide] | > 6.70
17 | CS(=O)(=O)c1cccc(C2(C(=O)N[C@H]3C[C@H]4CC[C@@H](C3)N4c3ccc(C(=O)NCC(F)(F)F)cn3)CC2)c1 [Example 289, 6-{3-endo-[({1-[3-(methylsulfonyl)phenyl]cyclo-propyl}carbonyl)amino]-8-azabicyclo[3.2.1]oct-8-yl}-N-(2,2,2-trifluoroethyl)pyridine-3-carboxamide] | > 5.70
18 | CC(C)(Oc1ncc(C(F)(F)F)cc1Cl)C(=O)N[C@H]1C[C@H]2CC[C@@H](C1)N2c1ccc(C(=O)NCC(F)(F)F)cn1 [Example 151, 6-{3-endo-[(2-{[3-chloro-5-(trifluoromethyl)pyridin-2-yl]oxy}-2-methylpropanoyl)amino]-8-azabicyclo[3.2.1]oct-8-yl}-N-(2,2,2-trifluoroethyl)pyridine-3-carboxamide] | > 6.70
19 | CC(C)(Oc1ccc(Cl)cc1)C(=O)N[C@H]1C[C@H]2CC[C@@H](C1)N2c1ccc(C(=O)NC2CC2)cn1 [Example 13, 6-[3-endo-({2-[(4-chlorophenyl)oxy]-2-methylpropanoyl}amino)-8-azabicyclo[3.2.1]oct-8-yl]-N-cyclopropylpyridine-3-carboxamide] | > 6.70
20 | CC(C)(Oc1ncc(Cl)cc1Cl)C(=O)N[C@H]1C[C@H]2CC[C@@H](C1)N2c1ccc(S(C)(=O)=O)cn1 [Example 193, 2-[(3,5-dichloropyridin-2-yl)oxy]-2-methyl-N-{8-[5-(methylsulfonyl)pyridin-2-yl]-8-azabicyclo[3.2.1]oct-3-endo-yl}propanamide] | > 6.70
21 | CC(C)(Oc1ccc(Cl)cc1)C(=O)N[C@H]1C[C@H]2CC[C@@H](C1)N2c1ccc(S(N)(=O)=O)cn1 [Example 202, N-{8-[5-(aminosulfonyl)pyridin-2-yl]-8-azabicyclo[3.2.1]oct-3-endo-yl}-2-[(4-chlorophenyl)oxy]-2-methylpropanamide] | > 6.70
22 | CC(C)(Oc1ccc(Cl)c(F)c1)C(=O)N[C@H]1C[C@H]2CC[C@@H](C1)N2c1ccc(S(N)(=O)=O)cn1 [Example 242, N-{8-[5-(aminosulfonyl)pyridin-2-yl]-8-azabicyclo[3.2.1]oct-3-endo-yl}-2-[(4-chloro-3-fluorophenyl)oxy]-2-methylpropanamide] | > 6.70
23 | O=C(NC1CC1)c1ccc(N2[C@@H]3CC[C@H]2C[C@@H](NC(=O)C2(c4ccc(Cl)cc4)CCC2)C3)nc1 [Example 50, 6-[3-endo-({[1-(4-chlorophenyl)cyclobutyl]carbonyl}amino)-8-azabicyclo[3.2.1]oct-8-yl]-N-cyclopropylpyridine-3-carboxamide] | > 6.70
24 | O=C(NC1CC1)c1ccc(N2[C@@H]3CC[C@H]2C[C@@H](NC(=O)C2(Oc4ccccc4)CC2)C3)nc1 [Example 45, N-cyclopropyl-6-[3-endo-({[1-(phenyloxy)cyclopropyl]carbonyl}amino)-8-azabicyclo[3.2.1]oct-8-yl]pyridine-3-carboxamide] | > 6.70
25 | CC(C)(Oc1cc(-c2ccc(F)cc2)ccc1Cl)C(=O)N[C@H]1C[C@H]2CC[C@@H](C1)N2c1ccc(C(N)=O)cn1 [Example 346, 6-[3-endo-({2-[(4-chloro-4′-fluorobiphenyl-3-yl)oxy]-2-methylpropanoyl}amino)-8-azabicyclo[3.2.1]oct-8-yl]pyridine-3-carboxamide] | > 6.70
26 | CC(C)(Oc1ccc(F)cc1C(F)(F)F)C(=O)N[C@H]1C[C@H]2CC[C@@H](C1)N2c1ccc(S(C)(=O)=O)cn1 [Example 176, 2-{[4-fluoro-2-(trifluoromethyl)phenyl]oxy}-2-methyl-N-{8-[5-(methylsulfonyl)pyridin-2-yl]-8-azabicyclo[3.2.1]oct-3-endo-yl}propanamide] | > 6.70
27 | CC(C)(Oc1ccc(F)cc1Cl)C(=O)N[C@H]1C[C@H]2CC[C@@H](C1)N2c1ccc(-c2nc(C(F)(F)F)n[nH]2)cn1 [Example 330, 2-[(2-chloro-4-fluorophenyl)oxy]-2-methyl-N-(8-{5-[3-(trifluoromethyl)-1H-1,2,4-triazol-5-yl]pyridin-2-yl}-8-azabicyclo[3.2.1]oct-3-endo-yl)propanamide] | > 5.70

— patent US8163771B2, “11 β-HSD1 modulators” (Exelixis, Inc., priority 2008, dated 2012)
